Assay results: patent publication US20250332173A1, “COMPOUNDS AND METHODS FOR MODULATING NUCLEIC ACID SPLICING” (REMIX THERAPEUTICS INC., priority 2021, published 2025)
Counter-ions that a name gives are not always drawn. Like-named read-outs stand apart in the source and are kept apart here.

Assays:
[1] = system: SMN2 mRNA; experiment: RT-qPCR splicing assay, SMN2 canonical junction (CJ) mRNA; type: cell-based, human; conditions: Homo sapiens; Table 5 panel; canonical junction qPCR; compound concentration having 50% response in CJ decrease; read-out: SMN2 IC50 (decrease in CJ mRNA levels)
Summary of the method: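 Read-out is canonical exon-exon junction mRNA quantified by RT-qPCR against a GAPDH, GUSB or PPIA control. Cells (A673 or K562) received compound for 24 h, top final dose 10 uM in an 11-point 3-fold series.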

[2] = system: HTT mRNA; experiment: RT-qPCR splicing assay, HTT canonical junction (CJ) and alternative junction (AJ) mRNA; type: cell-based, human; conditions: Homo sapiens; for AC50: increase in HTT alternative junction (AJ) mRNA, read-out: HTT AJ AC50
Summary of the method: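 Read-out is one-step RT-qPCR on cell lysates detecting the exon-exon junction of each isoform, normalized to a housekeeping gene (PPIA in A673, GAPDH or GUSB in K562).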

[3] = decrease in HTT canonical junction (CJ) mRNA, RT-qPCR, read-out: HTT CJ IC50
[4] = Table 5 panel, canonical junction qPCR, compound concentration having 50% response in CJ decrease, read-out: HTT IC50 (decrease in CJ mRNA levels)

| IC50 [1] [nM] | IC50 [2, 3] [nM] | IC50 [2, 4] [nM] | SMILES | AC50 ([2]; RT-qPCR) [nM] |
| --- | --- | --- | --- | --- |
| < 100 | 100 to 1000 | 100 to 1000 | Cc1cn2nc(-c3ccc4c(=O)n(C5CCNCC5)ccc4c3)cc(CC#N)c2n1 [Compound 520, 2-[2-methyl-6-[1-oxo-2-(4-piperidyl)-6-isoquinolyl]imidazo[1,2-b]pyridazin-8-yl]acetonitrile] | 100 to 1000 |
| > 10000 | > 10000 | > 10000 | Cn1cc2c(=O)n(-c3ccc4c(=O)n(C5CCNCC5)ccc4c3)ccc2n1 [Compound 530, 6-{2-methyl-4-oxopyrazolo[4,3-c]pyridin-5-yl}-2-(piperidin-4-yl)isoquinolin-1-one] | > 10000 |
| 100 to 1000 | > 10000 | > 10000 | Cc1cn2cc(-c3cc(F)c4c(=O)n([C@H]5CNC[C@H]5C)ccc4c3)cc(F)c2n1 [Compound 652, 8-fluoro-6-(8-fluoro-2-methyl-imidazo[1,2-a]pyridin-6-yl)-2-[(3R,4R)-4-methylpyrrolidin-3-yl]isoquinolin-1-one] | > 10000 |
| 1000 to 10000 | 1000 to 10000 | 1000 to 10000 | Cc1cc(-c2ccc3c(=O)n(N4CCN(C)CC4)cnc3c2)cc2cn(C)nc12 [Compound 175] | > 10000 |
| < 100 | < 100 | < 100 | Cc1cn2nc(-c3ccn4c(=O)c(C5CCNCC5)ccc4c3)cc(C)c2n1 [Compound 1181] | < 100 |
| < 100 | < 100 | < 100 | Cc1cn2nc(-c3cc(F)c4c(=O)n([C@H]5CCN(C)C6(CC6)C5)ncc4c3)cc(C)c2n1 [Compound 638] | < 100 |
| 1000 to 10000 | > 10000 | > 10000 | Cn1ccc2nn(-c3ccc4c(=O)n(C5CCNCC5)ccc4c3)cc2c1=O [Compound 522, 6-{5-methyl-4-oxopyrazolo[4,3-c]pyridin-2-yl}-2-(piperidin-4-yl)isoquinolin-1-one] | > 10000 |
| 100 to 1000 | > 10000 | > 10000 | CNC(=O)c1cc(-c2ccc3c(=O)n(C4CCNCC4)ccc3c2)nn2cc(C)nc12 [Compound 518, N, 2-dimethyl-6-[1-oxo-2-(4-piperidyl)-6-isoquinolyl]imidazo[1,2-b]pyridazine-8-carboxamide] | > 10000 |
| < 100 | 1000 to 10000 | 1000 to 10000 | Cc1cn2nc(-c3ccc4c(=O)n(C5CCNCC5)ccc4c3)cc(Cc3nnc[nH]3)c2n1 [Compound 535, 6-[2-methyl-8-(4H-1,2,4-triazol-3-ylmethyl)imidazo[1,2-b]pyridazin-6-yl]-2-(4-piperidyl) isoquinolin-1-one] | 1000 to 10000 |
| 100 to 1000 | 100 to 1000 | 100 to 1000 | Cc1nc2c(C)cc(-c3ccc4c(=O)n(C5CCNC6(CC6)C5)ncc4c3)cc2o1 (stereo not drawn) [Compound 513] | 100 to 1000 |
| 100 to 1000 | > 10000 | > 10000 | Cc1cn2cc(-c3cc(F)c4c(=O)n([C@H]5CNC[C@@H]5F)ccc4c3)cc(F)c2n1 [Compound 644] | > 10000 |
| < 100 | < 100 | < 100 | CCN1CCC(n2ncc3cc(-c4cc(C)c5nc(C)cn5n4)cc(F)c3c2=O)CC1 [Compound 537] | < 100 |
| < 100 | 1000 to 10000 | 1000 to 10000 | CNC(=O)Cc1cc(-c2ccc3c(=O)n(C4CCNCC4)ccc3c2)nn2cc(C)nc12 [Compound 534, N-methyl-2-[2-methyl-6-[1-oxo-2-(4-piperidyl)-6-isoquinolyl]imidazo[1,2-b]pyridazin-8-yl]acetamide] | 1000 to 10000 |
| < 100 | 100 to 1000 | 100 to 1000 | Cc1cn2cc(-c3cc(F)c4c(=O)n(C5CCNC6(CC6)C5)ncc4c3)cc(Cl)c2n1 (stereo not drawn) [Compound 556] | 100 to 1000 |
| < 100 | 100 to 1000 | 100 to 1000 | Cc1cn2nc(-c3ccc4c(=O)n(C5CCNCC5)cnc4c3)cc(C)c2n1 [Compound 181] | 100 to 1000 |
| < 100 | 100 to 1000 | 100 to 1000 | COC(=O)Cc1cc(-c2ccc3c(=O)n(C4CCNCC4)ccc3c2)nn2cc(C)nc12 [Compound 527] | 100 to 1000 |
| < 100 | < 100 | < 100 | Cc1cn2nc(-c3ccc4c(=O)n(C5CCNCC5)ccc4c3)cc(Oc3ccc(F)cc3)c2n1 [Compound 546, 6-[8-(4-fluorophenoxy)-2-methyl-imidazo[1,2-b]pyridazin-6-yl]-2-(4-piperidyl) isoquinolin-1-one; hydrochloride] | < 100 |
| < 100 | 1000 to 10000 | 1000 to 10000 | Cc1cn2cc(-c3cc(F)c4c(=O)n(C5CCNCC5)cnc4c3)cc(C#N)c2n1 [Compound 588] | 1000 to 10000 |
| < 100 | < 100 | < 100 | Cc1cn2nc(-c3cc(O)c4c(=O)n(C5CCNCC5)ncc4c3)cc(C)c2n1 [Compound 541] | < 100 |
| < 100 | < 100 | < 100 | Cc1cn2nc(-c3cc(F)c4c(=O)n([C@@H]5CCN(C)C6(CC6)C5)ncc4c3)cc(C)c2n1 [Compound 637] | < 100 |
| 100 to 1000 | > 10000 | > 10000 | CNc1cc(-c2cc(C)c3nc(C)cn3n2)cc2ccn([C@@H]3CCNC3)c(=O)c12 [Compound 648, 6-(2,8-dimethylimidazo[1,2-b]pyridazin-6-yl)-8-(methylamino)-2-[(3R)-pyrrolidin-3-yl]isoquinolin-1-one] | > 10000 |
| < 100 | 1000 to 10000 | 100 to 1000 | CNC1CCN(c2ccc3cc(-c4cc(C)c5nc(C)cn5n4)ccn3c2=O)C1 (stereo not drawn) [Compound 1158] | 100 to 1000 |
| < 100 | < 100 | < 100 | Cc1cn2nc(-c3cc(F)c4c(=O)n(C5CCNCC5)ncc4c3)cc(C)c2n1 [Compound 540] | < 100 |
| < 100 | < 100 | < 100 | Cc1cn2nc(-c3ccc4c(=O)n(C5CCNCC5)ncc4c3)cc(Oc3ccccc3)c2n1 [Compound 549, 6-(2-methyl-8-phenoxy-imidazo[1,2-b]pyridazin-6-yl)-2-(4-piperidyl) phthalazin-1-one] | < 100 |
| < 100 | < 100 | < 100 | Cc1cn2nc(-c3cc(F)c4c(=O)n(C5CCN(C)CC5)ncc4c3)cc(C)c2n1 [Compound 539] | < 100 |
| < 100 | 1000 to 10000 | 100 to 1000 | Cc1cn2nc(-c3ccc4c(=O)n(C5CCNCC5)ccc4c3)cc(CC(N)=O)c2n1 [Compound 528, 2-(2-methyl-6-(1-oxo-2-(piperidin-4-yl)-1,2-dihydroisoquinolin-6-yl)imidazo[1,2-b]pyridazin-8-yl) acetamide] | 100 to 1000 |
| 100 to 1000 | > 10000 | > 10000 | Cc1cn2nc(-c3cc(F)c4c(=O)n(C5CCNC5)cnc4c3)cc(C)c2n1 (stereo not drawn) [Compound 589, 7-{2,8-dimethylimidazo[1,2-b]pyridazin-6-yl}-5-fluoro-3-(pyrrolidin-3-yl)quinazolin-4-one] | > 10000 |
